In the supplement of paper PMC11451515:

What was measured:
Conditions in all cases: 48 h
P12-Ichikawa [1] = assay: cell viability relative to DMSO control; higher = less cytotoxic
Procedure, shortened: (§1)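 Library compounds in DMSO were pin-dosed in an 11-point threefold series (47 μM to 0.79 nM) onto leukemia cells in 1536-well plates (5 μl). Plates held 500 cells/well of NOMO1 or SEM or 1000 cells/well of P12-Ichikawa, each adapted for at least four passages in each medium. Luminescence was read with CellTiter-Glo One after 48 h at 37°C. Viability means the per-plate percentage relative to DMSO wells, using cell-free wells as background.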

NOMO1 [2] = assay: as above
Procedure, shortened: as §1

SEM cells [3] = assay: as above
Procedure, shortened: as §1

P12-Ichikawa [4] = assay: AUC of viability dose-response curve (% viability x log10 dose units); higher = less sensitive
Procedure, shortened: (§2)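 Library compounds in DMSO were applied for 48 h at 37°C at 11 threefold doses (47 μM to 0.79 nM) to medium-adapted leukemia cells in 1536-well plates holding 500 or 1000 cells/well. Luminescence from CellTiter-Glo One was normalised plate by plate against DMSO and cell-free wells. Area under the curve came from trapezoidal integration of a log-logistic fit, after scaling curves that rose above full viability and discarding those that failed quality control. The fit had four parameters and used log10 doses.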

NOMO1 [5] = assay: as above
Procedure, shortened: as §2

SEM cells [6] = assay: as above
Procedure, shortened: as §2

O=C(Nc1ccc([N+](=O)[O-])cc1Cl)c1cc(Cl)ccc1O
cell viability [%]
Conditions	NOMO1 [2]	P12-Ichikawa [1]	SEM cells [3]
HPLM + 10% dialyzed FBS, 0.000781 µM	103	95.3	84.5
HPLM + 10% dialyzed FBS, 0.00234 µM	94.9	105	98.7
HPLM + 10% dialyzed FBS, 0.00702 µM	99.2	98.6	93.1
HPLM + 10% dialyzed FBS, 0.0211 µM	107	102	98.2
HPLM + 10% dialyzed FBS, 0.0632 µM	98.7	107	99.7
HPLM + 10% dialyzed FBS, 0.19 µM	120	106	97.6
HPLM + 10% dialyzed FBS, 0.569 µM	111	105	104
HPLM + 10% dialyzed FBS, 1.71 µM	57.4	88	43.3
HPLM + 10% dialyzed FBS, 5.12 µM	30	46	24.2
HPLM + 10% dialyzed FBS, 15.4 µM	40.3	12.9	64.1
HPLM + 10% dialyzed FBS, 46.1 µM	31.7	24.7	33.9
RPMI 5 mM glucose + 10% FBS, 0.000781 µM	85.1	92.2	75
RPMI 5 mM glucose + 10% FBS, 0.00234 µM	86.4	90.9	89.7
RPMI 5 mM glucose + 10% FBS, 0.00702 µM	84.1	96	96.8
RPMI 5 mM glucose + 10% FBS, 0.0211 µM	93	92.9	101
RPMI 5 mM glucose + 10% FBS, 0.0632 µM	94.5	104	101
RPMI 5 mM glucose + 10% FBS, 0.19 µM	89.1	106	105
RPMI 5 mM glucose + 10% FBS, 0.569 µM	82.7	102	117
RPMI 5 mM glucose + 10% FBS, 1.71 µM	62.3	71.6	22.1
RPMI 5 mM glucose + 10% FBS, 5.12 µM	32.5	33	19.7
RPMI 5 mM glucose + 10% FBS, 15.4 µM	72.8	17	3.97
RPMI 5 mM glucose + 10% FBS, 46.1 µM	48.7	26.3	32.3
RPMI 5 mM glucose + 10% dialyzed FBS, 0.000781 µM	88.8	81.5	96.9
RPMI 5 mM glucose + 10% dialyzed FBS, 0.00234 µM	94.3	92.7	85.7
RPMI 5 mM glucose + 10% dialyzed FBS, 0.00702 µM	91.3	81.4	88.8
RPMI 5 mM glucose + 10% dialyzed FBS, 0.0211 µM	90.9	91.9	103
RPMI 5 mM glucose + 10% dialyzed FBS, 0.0632 µM	103	87.2	96.7
RPMI 5 mM glucose + 10% dialyzed FBS, 0.19 µM	96.4	88	99.2
RPMI 5 mM glucose + 10% dialyzed FBS, 0.569 µM	101	94.2	123
RPMI 5 mM glucose + 10% dialyzed FBS, 1.71 µM	50.8	69	19.6
RPMI 5 mM glucose + 10% dialyzed FBS, 5.12 µM	34.6	31.4	17.1
RPMI 5 mM glucose + 10% dialyzed FBS, 15.4 µM	50.9	32.1	66.3
RPMI 5 mM glucose + 10% dialyzed FBS, 46.1 µM	47.9	5.22	47

AUC of viability dose-response curve
Conditions	NOMO1 [5]	P12-Ichikawa [4]	SEM cells [6]
HPLM + 10% dialyzed FBS	375	386	369
RPMI 5 mM glucose + 10% FBS	363	368	336
RPMI 5 mM glucose + 10% dialyzed FBS	372	335	370

O=C(NCCO[N+](=O)[O-])c1cccnc1
cell viability [%]
Conditions	NOMO1 [2]	P12-Ichikawa [1]	SEM cells [3]
HPLM + 10% dialyzed FBS, 0.000781 µM	112	112	99.3
HPLM + 10% dialyzed FBS, 0.00234 µM	124	113	64.4
HPLM + 10% dialyzed FBS, 0.00702 µM	123	118	107
HPLM + 10% dialyzed FBS, 0.0211 µM	133	122	114
HPLM + 10% dialyzed FBS, 0.0632 µM	137	115	105
HPLM + 10% dialyzed FBS, 0.19 µM	126	117	97.1
HPLM + 10% dialyzed FBS, 0.569 µM	136	115	101
HPLM + 10% dialyzed FBS, 1.71 µM	135	116	98.7
HPLM + 10% dialyzed FBS, 5.12 µM	129	113	108
HPLM + 10% dialyzed FBS, 15.4 µM	123	121	105
HPLM + 10% dialyzed FBS, 46.1 µM	62.3	118	115
RPMI 5 mM glucose + 10% FBS, 0.000781 µM	–	112	100
RPMI 5 mM glucose + 10% FBS, 0.00234 µM	–	126	92.8
RPMI 5 mM glucose + 10% FBS, 0.00702 µM	–	120	112
RPMI 5 mM glucose + 10% FBS, 0.0211 µM	–	130	111
RPMI 5 mM glucose + 10% FBS, 0.0632 µM	–	121	112
RPMI 5 mM glucose + 10% FBS, 0.19 µM	–	119	114
RPMI 5 mM glucose + 10% FBS, 0.569 µM	–	126	96.1
RPMI 5 mM glucose + 10% FBS, 1.71 µM	–	126	102
RPMI 5 mM glucose + 10% FBS, 5.12 µM	–	127	112
RPMI 5 mM glucose + 10% FBS, 15.4 µM	–	126	121
RPMI 5 mM glucose + 10% FBS, 46.1 µM	–	118	108
RPMI 5 mM glucose + 10% dialyzed FBS, 0.000781 µM	118	112	107
RPMI 5 mM glucose + 10% dialyzed FBS, 0.00234 µM	120	116	89.6
RPMI 5 mM glucose + 10% dialyzed FBS, 0.00702 µM	123	109	112
RPMI 5 mM glucose + 10% dialyzed FBS, 0.0211 µM	135	114	109
RPMI 5 mM glucose + 10% dialyzed FBS, 0.0632 µM	127	111	97.6
RPMI 5 mM glucose + 10% dialyzed FBS, 0.19 µM	119	123	111
RPMI 5 mM glucose + 10% dialyzed FBS, 0.569 µM	133	111	96.6
RPMI 5 mM glucose + 10% dialyzed FBS, 1.71 µM	124	112	105
RPMI 5 mM glucose + 10% dialyzed FBS, 5.12 µM	125	112	110
RPMI 5 mM glucose + 10% dialyzed FBS, 15.4 µM	125	111	111
RPMI 5 mM glucose + 10% dialyzed FBS, 46.1 µM	92.1	117	110

AUC of viability dose-response curve
Conditions	NOMO1 [5]	P12-Ichikawa [4]	SEM cells [6]
HPLM + 10% dialyzed FBS	463	471	461
RPMI 5 mM glucose + 10% FBS	472	474	455
RPMI 5 mM glucose + 10% dialyzed FBS	471	475	461

Cc1cc(-c2ncc(CC(=O)Nc3ccc(-c4cnccn4)cn3)cc2C)ccn1
AUC of viability dose-response curve
Conditions	NOMO1 [5]	P12-Ichikawa [4]	SEM cells [6]
HPLM + 10% dialyzed FBS	445	458	462
RPMI 5 mM glucose + 10% FBS	466	439	458
RPMI 5 mM glucose + 10% dialyzed FBS	447	456	457

CC1=CC=C(C=C1)N(C\C2=N\CCN2)C3=CC=CC(=C3)O
SEM cells [3], HPLM + 10% dialyzed FBS
Conditions	cell viability [%]
0.000781 µM	118
0.00234 µM	114
0.00702 µM	122
0.0211 µM	120
0.0632 µM	117
0.19 µM	126
0.569 µM	132
1.71 µM	131
5.12 µM	131
15.4 µM	131
46.1 µM	68.4

AUC of viability dose-response curve
Conditions	NOMO1 [5]	P12-Ichikawa [4]	SEM cells [6]
HPLM + 10% dialyzed FBS	352	473	454
RPMI 5 mM glucose + 10% FBS	403	452	464
RPMI 5 mM glucose + 10% dialyzed FBS	407	459	468
